Test results from patent US20240189292A1 (priority 2021, published 2024).
Where two headings read alike, the source gives them in different places.

Test: in vivo
Parameters: species or system SD rats
Conditions: male, SD, rat, plasma; for AUC: read-out: Area Under Curve AUC; for clearance: read-out: Clearance Rate Cl; for C0: read-out: Initial Concentration C0; for Vd: read-out: Volume of Distribution Vd; for bioavailability: read-out: Bioavailability F; for Cmax: read-out: Peak Concentration Cmax
[1] = iv, 0.2 mg/kg, read-out: Half-life T1/2 (converted)
[2] = po, 1 mg/kg, read-out: Peak Concentration Time T1/2 (converted)

Row | AUC (iv, 0.2 mg/kg) [µM·h] | clearance (iv, 0.2 mg/kg) [mL/min/kg] | half-life [1] [h] | C0 (iv, 0.2 mg/kg) [nM] | Vd (iv, 0.2 mg/kg) [L/kg] | AUC (po, 1 mg/kg) [µM·h] | bioavailability (po, 1 mg/kg) [%] | Cmax (po, 1 mg/kg) [nM] | half-life [2] [h] | AUC (intravenous, 0.2 mg/kg) [µM·h] | clearance (intravenous, 0.2 mg/kg) [mL/min/kg] | half-life (intravenous, 0.2 mg/kg, read-out: Half-life T1/2 (converted)) [h] | C0 (intravenous, 0.2 mg/kg) [nM] | Vd (intravenous, 0.2 mg/kg) [L/kg] | Structure (SMILES)
1 | 1.33 | 8.11 | 2.31 | 773 | 1.6 | 7.32 | 110 | 1380 | 4.81 | – | – | – | – | – | C[C@H](NC1=CC(=O)C2(CCCC2)C(=O)N1)c1ccccc1 [Compound 3]
2 | 3.53 | 2.93 | 3.86 | 3700 | 0.885 | 14.8 | 88.1 | 2140 | 5.96 | – | – | – | – | – | C[C@H](NC1=CC(=O)C2(CCCC2)C(=O)N1)c1cccc(Cl)c1 [Compound 7]
3 | 2.11 | 4.78 | 5.93 | 4820 | 1.73 | 8.11 | 76.7 | 1940 | 7.35 | – | – | – | – | – | Cc1ccc(F)c([C@H](C)NC2=CC(=O)C3(CCCC3)C(=O)N2)c1 [Compound 9]
4 | – | – | – | – | – | 7.93 | – | 1310 | 4.83 | 1.29 | 6 | 6.37 | 1460 | 2.7 | C[C@H](NC1=CC(=O)C2(CCCC2)C(=O)N1)c1cc(F)ccc1F [Compound 10]
